From patent US4710505A, “Asymmetric heterocyclic ester derivatives of 1,4-dihydropyridine-3,5-dicarboxylic acids” (Societe de Recherches Industrielles (S.O.R.I.), priority 1985, dated 1987)
Where two headings read alike, the source gives them in different places.

How the values were obtained:
rabbit aorta = assay: Relaxing effect on isolated rabbit aorta contracted (depolarized) by KCl; conditions: Oryctolagus cuniculus; rabbit aorta depolarized by 127 mM KCl; read-out: ED50 (dose causing a 50% relaxation of the precontracted arteries)
Experimental: I. RELAXING EFFECT ON ISOLATED RABBIT AORTA CONTRACTED BY KCl
The thoracic aortae of male rabbits are removed, cut into narrow strips and placed under tension in an oxygenated survival medium. The contractions of these arteries, the amplitude of which is measured using a myograph, are induced by a 127 mM solution of KCl [R. Towart et al., Arzneim.-Forsch./Drug Res. 32, 338-346 (1982)]. The compounds studied are dissolved in a mixture of anhydrous ethanol and double distilled water (1:1) v/v, the percentage of ethanol in the baths being less than or equal to 0.3% at the end of the experiment. When the contraction plateau is reached, the compound is added to the medium in increasing doses every 15 minutes.

[1] = system: spontaneously hypertensive rats; assay: Antihypertensive activity in spontaneously hypertensive rats, oral administration; assay type: in vivo; conditions: 30 mg/kg; for change in vivo at 30 mg/kg: Rattus norvegicus
Experimental: Spontaneously hypertensive rats aged between 16 and 20 weeks are used. The systolic pressure is measured by plethysmography and the heart rate is obtained from the pressure graph. The compounds studied are administered orally.

[2] = system: spontaneously hypertensive rats; assay: Antihypertensive activity in spontaneously hypertensive rats, intravenous administration; assay type: in vivo
From the text: 2. Intravenous administration
Spontaneously hypertensive rats aged between 16 and 20 weeks are used. They are anesthetized with diethyl ether, a cannula is inserted into the caudal artery to measure the arterial pressure and a catheter is inserted into the right jugular vein to administer the compounds as described previously (L. S. Watson and L. T. Ludden, New Antihypertensive Drugs, pages 87-96, Spectrum Publication, Inc., 1976).
Each curve C relates to the control group receiving only the vehicle and each curve T relates to the treated group [n (number of animals per group)=4-7]. The said groups are compared either by analysis of variance, if the variances are homogenous (Bartlett's homocedasticity test), or by Kruskall-Wallis's non-parametric test (the statistically significant results being represented as follows:
FIGS. 1-6 relate to the variation in systolic pressure, expressed in mm Hg (1 mm Hg corresponds approximately to 1.333×10^2 Pa), as a function of time, expressed in minutes, and FIGS. 1a-6a relate to the variation in diastolic pressure, also expressed in mm Hg, as a function of time, expressed in minutes, for the treated groups (curves T) compared with the corresponding control groups (curves C), the doses of products administered being as follows:
FIGS. 2 and 2a: nicardipine at 30 μg/kg i.v.,
FIGS. 3 and 3a: Example 2 at 30 μg/kg i.v.,
FIGS. 4 and 4a: Example 7 at 100 μg/kg i.v.,
FIGS. 5 and 5a: Example 8 at 300 μg/kg i.v., and
FIGS. 6 and 6a: Example 11 at 30 and 100 μg/kg i.v. (curves T1 and T2).

anesthetized dogs = assay: Hemodynamic effects on anesthetized dogs, intraduodenal administration; assay type: in vivo, Mongrel dogs; conditions: 0.5 mg/kg
Experimental: III. HEMODYNAMIC EFFECTS ON ANESTHETIZED DOGS Mongrel dogs are anesthetized with pentobarbital sodium (25 mg/kg i.v.). Each animal is placed under artificial respiration and a catheter is introduced into the aorta to measure the arterial pressure. The outputs of the aorta (O. Aor.), right femoral artery (O. Fem.) and left coronary artery (descending part) (O. Cor.) are measured continuously by means of electromagnetic rings. The total peripheral resistances (T.P.R.) are also calculated. […]

in vivo = conditions: rat, intravenous, male Wistar rats weighing 300 g
Experimental: The LD50 was determined by intravenous administration to male Wistar rats weighing 300 g.

[3] = versus nicardipine and nifedipine

## COC(=O)C1=C(C)NC(C)=C(C(=O)OCC2COC3(CCCCC3)O2)C1c1cccc([N+](=O)[O-])c1 (centres unmarked) [Example 2, methyl (1,4-dioxaspiro[4,5]decan-2-yl)methyl 1,4-dihydro-2,6-dimethyl-4-(3-nitrophenyl)pyridine-3,5-dicarboxylate]
Rabbit aorta
  EC50: 50 nM
[1]
  duration of the effect, Systolic pressure: > 24 h
[1]; read-out: % variation Heart rate
  change in vivo at 30 mg/kg: 24.5%
[1]; read-out: % variation Systolic pressure
  change in vivo at 30 mg/kg: -45.4 ± 6.3%
[2]; 30 μg/kg i.v., versus nicardipine 30 μg/kg and nifedipine 300 μg/kg i.v.
  drop in systolic and diastolic pressures (in words): greater drop in systolic and diastolic pressures than nicardipine at the same dose and nifedipine at 10 times the dose
[2]; single i.v. dose, Ex. 2 30, Ex. 7 100, Ex. 8 300, Ex. 11 30 and 100 μg/kg, versus nicardipine and nifedipine
  duration of the antihypertensive effect (in words): notably longer than that of nicardipine and nifedipine
Anesthetized dogs
  % variation D.P. (diastolic pressure): -41.2%
  % variation O. Aor. (output of the aorta): +40.2%
  % variation O. Cor. (output of left coronary artery): +89.5%
  % variation O. Fem. (output of right femoral artery): +180.5%
  duration of the effect, D.P. (diastolic pressure): 240 min
  duration of the effect, O. Aor. (output of the aorta): 300 min
  duration of the effect, O. Cor. (output of left coronary artery): 300 min
  duration of the effect, O. Fem. (output of right femoral artery): 300 min
Anesthetized dogs; calculated
  % variation T.P.R. (total peripheral resistances): -53.4%
  duration of the effect, T.P.R. (total peripheral resistances): 300 min
Anesthetized dogs; [3]
  cardiac, femoral and coronary outputs (in words): increased for a longer time and to a greater extent
  drop in total peripheral resistances (in words): greater drop in total peripheral resistances than nicardipine and nifedipine
  duration of drop in total peripheral resistances (in words): considerably longer
In vivo
  LD50: 27.9 mg/kg
